In the NIST ThermoML archive (doi:10.1021/je2009413):
Numbers after ± are expanded uncertainties.

Key:
[1] = osmotic coefficient (dimensionless); mn = molality of the nth substance listed, in mol/kg; conditions: 298.15 K, Liquid, isopiestic method
[2] = mean ionic activity coefficient (dimensionless); mn = molality of the nth substance listed, in mol/kg; conditions: 298.15 K, Liquid, Isopiestic method

## CCCC[N+](CC)(CC)CCCC.[I-] [N-butyl-N,N-diethylbutan-1-aminium iodide] + O
[1]; m1 = 0.0372
  osmotic coefficient: 0.828 ± 0.01
[1]; m1 = 0.0441
  osmotic coefficient: 0.813 ± 0.011
[1]; m1 = 0.0491
  osmotic coefficient: 0.805 ± 0.011
[1]; m1 = 0.0634
  osmotic coefficient: 0.782 ± 0.011
[1]; m1 = 0.0706
  osmotic coefficient: 0.772 ± 0.011
[1]; m1 = 0.0749
  osmotic coefficient: 0.768 ± 0.011
[1]; m1 = 0.0839
  osmotic coefficient: 0.756 ± 0.011
[1]; m1 = 0.0992
  osmotic coefficient: 0.738 ± 0.012
[1]; m1 = 0.1069
  osmotic coefficient: 0.731 ± 0.012
[1]; m1 = 0.1133
  osmotic coefficient: 0.723 ± 0.012
[1]; m1 = 0.1221
  osmotic coefficient: 0.716 ± 0.012
[1]; m1 = 0.1938
  osmotic coefficient: 0.654 ± 0.014
[1]; m1 = 0.1969
  osmotic coefficient: 0.649 ± 0.014
[1]; m1 = 0.2338
  osmotic coefficient: 0.625 ± 0.015
[1]; m1 = 0.2705
  osmotic coefficient: 0.61 ± 0.015
[1]; m1 = 0.2758
  osmotic coefficient: 0.605 ± 0.015
[1]; m1 = 0.3292
  osmotic coefficient: 0.581 ± 0.016
[1]; m1 = 0.3751
  osmotic coefficient: 0.559 ± 0.017
[1]; m1 = 0.4189
  osmotic coefficient: 0.546 ± 0.018
[1]; m1 = 0.4343
  osmotic coefficient: 0.541 ± 0.018
[1]; m1 = 0.4687
  osmotic coefficient: 0.532 ± 0.018
[1]; m1 = 0.5317
  osmotic coefficient: 0.508 ± 0.019
[1]; m1 = 0.58
  osmotic coefficient: 0.497 ± 0.019
[1]; m1 = 0.6463
  osmotic coefficient: 0.481 ± 0.02
[1]; m1 = 0.7082
  osmotic coefficient: 0.463 ± 0.021
[1]; m1 = 0.758
  osmotic coefficient: 0.456 ± 0.021
[1]; m1 = 0.7808
  osmotic coefficient: 0.451 ± 0.021
[1]; m1 = 0.9199
  osmotic coefficient: 0.426 ± 0.022
[1]; m1 = 0.9899
  osmotic coefficient: 0.416 ± 0.023
[1]; m1 = 1.1
  osmotic coefficient: 0.401 ± 0.023
[1]; m1 = 1.178
  osmotic coefficient: 0.389 ± 0.024
[1]; m1 = 1.324
  osmotic coefficient: 0.375 ± 0.024
[1]; m1 = 1.426
  osmotic coefficient: 0.371 ± 0.024
[1]; m1 = 1.548
  osmotic coefficient: 0.366 ± 0.025
[1]; m1 = 1.66
  osmotic coefficient: 0.362 ± 0.025
[1]; m1 = 1.76
  osmotic coefficient: 0.363 ± 0.025
[1]; m1 = 1.926
  osmotic coefficient: 0.366 ± 0.025
[1]; m1 = 2.042
  osmotic coefficient: 0.377 ± 0.024
[1]; m1 = 2.078
  osmotic coefficient: 0.383 ± 0.024
[1]; m1 = 2.108
  osmotic coefficient: 0.384 ± 0.024
[1]; m1 = 2.136
  osmotic coefficient: 0.386 ± 0.024
[1]; m1 = 2.179
  osmotic coefficient: 0.4 ± 0.023
[1]; m1 = 2.218
  osmotic coefficient: 0.405 ± 0.023
[1]; m1 = 2.389
  osmotic coefficient: 0.434 ± 0.022
[2]; m1 = 0.0372
  mean ionic activity coefficient: 0.7064 ± 0.0001
[2]; m1 = 0.0441
  mean ionic activity coefficient: 0.6798 ± 0.0001
[2]; m1 = 0.0491
  mean ionic activity coefficient: 0.6621 ± 0.0001
[2]; m1 = 0.0634
  mean ionic activity coefficient: 0.6174 ± 0.0001
[2]; m1 = 0.0706
  mean ionic activity coefficient: 0.5976 ± 0.0001
[2]; m1 = 0.0749
  mean ionic activity coefficient: 0.5865 ± 0.0001
[2]; m1 = 0.0839
  mean ionic activity coefficient: 0.5647 ± 0.0001
[2]; m1 = 0.0992
  mean ionic activity coefficient: 0.5317 ± 0.0001
[2]; m1 = 0.1069
  mean ionic activity coefficient: 0.5166 ± 0.0001
[2]; m1 = 0.1133
  mean ionic activity coefficient: 0.5048 ± 0.0001
[2]; m1 = 0.1221
  mean ionic activity coefficient: 0.4896 ± 0.0001
[2]; m1 = 0.1938
  mean ionic activity coefficient: 0.3939 ± 0.0001
[2]; m1 = 0.1969
  mean ionic activity coefficient: 0.3912 ± 0.0001
[2]; m1 = 0.2338
  mean ionic activity coefficient: 0.3566 ± 0.0001
[2]; m1 = 0.2705
  mean ionic activity coefficient: 0.3248 ± 0.0001
[2]; m1 = 0.2758
  mean ionic activity coefficient: 0.3213 ± 0.0001
[2]; m1 = 0.3292
  mean ionic activity coefficient: 0.2868 ± 0.0001
[2]; m1 = 0.3751
  mean ionic activity coefficient: 0.2634 ± 0.0001
[2]; m1 = 0.4189
  mean ionic activity coefficient: 0.2415 ± 0.0001
[2]; m1 = 0.4343
  mean ionic activity coefficient: 0.2351 ± 0.0001
[2]; m1 = 0.4687
  mean ionic activity coefficient: 0.2213 ± 0.0001
[2]; m1 = 0.5317
  mean ionic activity coefficient: 0.2037 ± 0.0001
[2]; m1 = 0.58
  mean ionic activity coefficient: 0.1904 ± 0.0001
[2]; m1 = 0.6463
  mean ionic activity coefficient: 0.1748 ± 0.0001
[2]; m1 = 0.7082
  mean ionic activity coefficient: 0.166 ± 0.0001
[2]; m1 = 0.758
  mean ionic activity coefficient: 0.1556 ± 0.0001
[2]; m1 = 0.7808
  mean ionic activity coefficient: 0.1521 ± 0.0001
[2]; m1 = 0.9199
  mean ionic activity coefficient: 0.1348 ± 0.0001
[2]; m1 = 0.9899
  mean ionic activity coefficient: 0.1266 ± 0.0001
[2]; m1 = 1.1
  mean ionic activity coefficient: 0.1171 ± 0.0001
[2]; m1 = 1.178
  mean ionic activity coefficient: 0.1131 ± 0.0001
[2]; m1 = 1.324
  mean ionic activity coefficient: 0.1042 ± 0.0001
[2]; m1 = 1.426
  mean ionic activity coefficient: 0.0988 ± 0.0001
[2]; m1 = 1.548
  mean ionic activity coefficient: 0.0944 ± 0.0001
[2]; m1 = 1.66
  mean ionic activity coefficient: 0.0909 ± 0.0001
[2]; m1 = 1.76
  mean ionic activity coefficient: 0.0885 ± 0.0001
[2]; m1 = 1.926
  mean ionic activity coefficient: 0.0852 ± 0.0001
[2]; m1 = 2.042
  mean ionic activity coefficient: 0.0821 ± 0.0001
[2]; m1 = 2.078
  mean ionic activity coefficient: 0.0809 ± 0.0001
[2]; m1 = 2.108
  mean ionic activity coefficient: 0.0807 ± 0.0001
[2]; m1 = 2.136
  mean ionic activity coefficient: 0.0802 ± 0.0001
[2]; m1 = 2.179
  mean ionic activity coefficient: 0.0789 ± 0.0001
[2]; m1 = 2.218
  mean ionic activity coefficient: 0.0782 ± 0.0001
[2]; m1 = 2.389
  mean ionic activity coefficient: 0.0748 ± 0.0001
